According to patent publication US10865194B2, “Therapeutically active bicyclic-sulphonamides and pharmaceutical compositions” (FONDAZIONE ISTITUTO ITALIANO DI TECNOLOGIA, priority 2017, dated 2020):
Like-named read-outs stand apart in the source and are kept apart here.

How the values were obtained:
[1] = test system: Neuro2A cells; test: Inhibition of ROS production in Neuro2A cells (H2O2-induced, DCFH-DA fluorescence); assay type: cell-based; conditions: for Inhibition of ROS production in neuro 2A cells, 5 μM (inhibition) / inhibition at 5 µM: compound 5 μM; for Inhibition of ROS production in neuro 2A cells, 10 μM (inhibition) / inhibition at 10 µM: compound 10 μM; for inhibition at 5 µM / inhibition at 10 µM: Mus musculus, N2a; for inhibition at 5 µM: ROS induced with 0.2 mM H2O2, read-out: Inhibition of ROS production in neuro 2A cells, 5 μM (inhibition); for inhibition at 10 µM: ROS induced with 0.2 mM H2O2, read-out: Inhibition of ROS production in neuro 2A cells, 10 μM (inhibition)
Experimental: The experiments carried out to evaluate the inhibition of ROS production using the compounds of the invention were based on the method reported by Danli W. and Patricia Yotnda in Production and Detection of Reactive Oxygen Species (ROS) in Cancers, J. Vis Exp. 2011; (57):3357.
Cultured brain Neuroblastoma2A (Neuro2A) were used.
15.000 Cells were plated in a 96 well plate with black walls and transparent flat bottom in 100 μL of DMEM complete medium (including 10% fetal bovine serum, […] L-Glutamine) containing compounds at indicated concentrations or 0.5% dimethylsulfoxide (DMSO), and kept overnight at 37° C. to allow them to attach to the plate. The following day the culture medium was removed, cells were washed with 100 μl of Phosphate Buffer Saline, pH 7.4 (PBS) and loaded with 100 μL of PBS containing 10 μM of dichloro-dihydro-fluorescein diacetate (DCFH-DA) and compounds at the indicated concentrations (or DMSO 0.5%) for additional 45 min at 37° C. DCFH-DA was prepared as a 20 mM stock in (DMSO) and kept in the dark at 4° C.
ROS production was induced by exposure with 0.2 mM H2O2 dissolved in 100 μl of complete DMEM medium without phenol red. Fluorescence intensity was measured at an […] wavelengths of 485/535 nm and ROS production was monitored for 2 h, at 37° C.

[2] = target: T1, human NAAA (Homo sapiens, UniProt Q02083); test: In vitro human NAAA fluorogenic assay; assay type: biochemical; conditions: enzyme-enriched lysate of HEK-293 cells stably transfected with human NAAA
T1 construct: expressed in transfected cells; host or cells: HEK-293 (stably transfected, G418 selection); enzyme-enriched lysate
T1 sequence (Q02083 126-359 limits assumed): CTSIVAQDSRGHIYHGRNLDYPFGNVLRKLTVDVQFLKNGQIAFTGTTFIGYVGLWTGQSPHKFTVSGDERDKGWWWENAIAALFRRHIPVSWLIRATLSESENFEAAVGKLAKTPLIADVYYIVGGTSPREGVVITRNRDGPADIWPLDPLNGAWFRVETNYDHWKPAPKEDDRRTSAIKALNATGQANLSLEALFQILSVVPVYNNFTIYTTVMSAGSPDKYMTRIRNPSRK
T1 sequence (Q02083 29-125 limits assumed): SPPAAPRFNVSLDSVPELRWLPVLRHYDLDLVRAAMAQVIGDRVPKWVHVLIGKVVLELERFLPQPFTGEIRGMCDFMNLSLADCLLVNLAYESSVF
Experimental: Human recombinant proteins were obtained from HEK-293 stable overexpressing NAAA cell lines. Cells were grown in Dulbecco's modified Eagle medium (DMEM) containing 10% FBS, 1% penicillin/streptomycin, 1% glutamine and 500 μg/mL G418. To obtain membrane preparation cells were scraped off with cold phosphate-buffered saline (PBS) and collected by centrifugation (300×g, 7 min, 4° C.). Cell pellet were stored at −80° C. until protein preparation.
In Vitro Human NAAA Assay
Preparation of Enzyme-Enriched Lysate (h-NAAA).
HEK-293 cells stably transfected with the human NAAA coding sequences were used as enzyme source. Cell pellets were suspended in 20 mM Tris HCl (pH 7.4) with 0.32 M sucrose, sonicated and centrifuged at 800×g for 30 min at 4° C. Supernatants were then ultracentrifuged at 12,000×g for 30 min at 4° C. Pellets were re-suspended in PBS buffer (pH 7.4) and subjected to three freeze-thaw cycles at −80° C. The suspension was finally ultracentrifuged at 105,000×g for 1 h at 4° C., supematants were collected, protein concentration was measured and samples aliquoted and stored at −80° C. until use.
The results are summarized in Table 3 as follows, wherein +: IC50>2 μM; ++: 1.0 μM<IC50<2 μM; +++: IC50<1 μM: […]

[3] = read-out: Activity h-NAAA Fluorogenic assay

Row | Molecule | IC50 [2, 3] [µM] | further results
1 | CCCCc1ccc(OC2CC3CCC(C2)N3S(=O)(=O)c2c(C)n[nH]c2C)cc1 [Example 03, (1R,3s,5S)-3-(4-Butylphenoxy)-8-[(3,5-dimethyl-1H-pyrazol-4-yl)sulfonyl]-8-azabicyclo[3.2.1]octane] | – | Inhibition of ROS production in neuro 2A cells, 5 μM (inhibition) ([1]; ROS induced with 0.2 mM H2O2): 39%; Inhibition of ROS production in neuro 2A cells, 10 μM (inhibition) ([1]; ROS induced with 0.2 mM H2O2): 136%; IC50 ([2]; Activity h-NAAA Fluorogenic assay): > 2 µM
2 | Cc1n[nH]c(C)c1S(=O)(=O)N1C2CCC1CC(Oc1ccc(C#N)cc1)C2 [Example 08, (1R,3r,5S)-3-(4-Cyanophenoxy)-8-[(3,5-dimethyl-1H-pyrazol-4-yl)sulfonyl]-8-azabicyclo[3.2.1]octane] | < 1 | Inhibition of ROS production in neuro 2A cells, 5 μM (inhibition) ([1]; ROS induced with 0.2 mM H2O2): 0%; Inhibition of ROS production in neuro 2A cells, 10 μM (inhibition) ([1]; ROS induced with 0.2 mM H2O2): 77%
3 | Cc1n[nH]c(C)c1S(=O)(=O)N1C2CCC1CC(Oc1ccc(C#N)cc1)C2 [Example 09, (1R,3s,5S)-3-(4-Cyanophenoxy)-8-[(3,5-dimethyl-1H-pyrazol-4-yl)sulfonyl]-8-azabicyclo[3.2.1]octane] | > 2 | Inhibition of ROS production in neuro 2A cells, 5 μM (inhibition) ([1]; ROS induced with 0.2 mM H2O2): 35%; Inhibition of ROS production in neuro 2A cells, 10 μM (inhibition) ([1]; ROS induced with 0.2 mM H2O2): 56%
4 | CCCCc1ccc(OC2CC3CCC(C2)N3S(=O)(=O)c2c(C)noc2C)cc1 [Example 15, 4-[[(1R,3r,5S)-3-(4-Butylphenoxy)-8-azabicyclo[3.2.1]octan-8-yl]sulfonyl]-3,5-dimethyl-isoxazole] | > 2 | inhibition at 5 µM [1]: 0%; inhibition at 10 µM [1]: 84%
5 | Cc1n[nH]c(C)c1S(=O)(=O)N1C2CCC1CC(Oc1cccnn1)C2 [Example 37, (1R,3r,5S)-8-[(3,5-Dimethyl-1H-pyrazol-4-yl)sulfonyl]-3-pyridazin-3-yloxy-8-azabicyclo[3.2.1]octane] | > 2 | –
6 | Cc1ccc2oc(OC3CC4CCC(C3)N4S(=O)(=O)c3c(C)n[nH]c3C)nc2c1 [Example 38, (1R,3r,5S)-8-[(3,5-Dimethyl-1H-pyrazol-4-yl)sulfonyl]-3-(2-(5-methyl)-benzoxazoloxy)-8-azabicyclo[3.2.1]octane] | < 1 | –
7 | Cc1n[nH]c(C)c1S(=O)(=O)N1C2CCC1CC(Oc1ccc(Cl)cc1)C2 [Example 39, (1R,3r,5S)-3-(4-Chloro-phenoxy)-8-[(3,5-dimethyl-1H-pyrazol-4-yl)sulfonyl]-8-azabicyclo[3.2.1]octane] | < 1 | –
8 | CCCCc1cnc(OC2CC3CCC(C2)N3S(=O)(=O)c2c(C)n[nH]c2C)cn1 [Example 40, (1R,3r,5S)-8-[(3,5-Dimethyl-1H-pyrazol-4-yl)sulfonyl]-3-[5-butylpyrazin-2-yl]oxy-8-azabicyclo[3.2.1]octane] | < 1 | inhibition at 5 µM [1]: 19%; inhibition at 10 µM [1]: 86%
9 | CCOCc1cnc(OC2CC3CCC(C2)N3S(=O)(=O)c2c(C)n[nH]c2C)cn1 [Example 41, (1R,3r,5S)-8-[(3,5-Dimethyl-1H-pyrazol-4-yl)sulfonyl]-3-[5-(ethoxymethyl)pyrazin-2-yl]oxy-8-azabicyclo[3.2.1]octane] | < 1 | –
10 | Cc1n[nH]c(C)c1S(=O)(=O)N1C2CCC1CC(Oc1ccc(F)cc1)C2 [Example 42, (1R,3r,5S)-3-(4-Fluoro-phenoxy)-8-[(3,5-dimethyl-1H-pyrazol-4-yl)sulfonyl]-8-azabicyclo[3.2.1]octane] | < 1 | –
11 | Cc1n[nH]c(C)c1S(=O)(=O)N1[C@@H]2CC[C@H]1C[C@H](Oc1cccnn1)C2 [Example 43, (1R,3s,5S)-8-[(3,5-Dimethyl-1H-pyrazol-4-yl)sulfonyl]-3-pyridazin-3-yloxy-8-azabicyclo[3.2.1]octane] | > 2 | –
12 | O=C(/C=C/c1ccc(O)c2c1[C@H](C(=O)O[C@H](Cc1ccc(O)c(O)c1)C(=O)O)[C@@H](c1ccc(O)c(O)c1)O2)O[C@H](Cc1ccc(O)c(O)c1)C(=O)O [Salvianolic Acid B, Salvianolic acid B, reference compound] | – | Inhibition of ROS production in neuro 2A cells (inhibition), reference at 100 μM ([1]; reference compound 100 μM, ROS induced with 0.2 mM H2O2): 100%
13 | (1R,3r,5S)-3-(4-Hexylphenoxy)-8-[(3,5-dimethyl-1H-pyrazol-4-yl)sulfonyl]-8-azabicyclo[3.2.1]octane [Example 19] | < 1 | –

Further lines, with some results ahead:

Row | IC50 [2, 3] [µM] | Molecule | further results
14 | < 1 | Cc1n[nH]c(C)c1S(=O)(=O)N1C2CCCC1CC(Oc1cnccn1)C2 [Example 44, (1R,3r,5S)-9-[(3,5-Dimethyl-1H-pyrazol-4-yl)sulfonyl]-3-(pyrazin-2-yloxy)-9-azabicyclo[3.3.1]nonane] | –
15 | > 2 | Cc1n[nH]c(C)c1S(=O)(=O)N1C2CCCC1CC(Oc1cnccn1)C2 [Example 45, (1R,3s,5S)-9-[(3,5-Dimethyl-1H-pyrazol-4-yl)sulfonyl]-3-(pyrazin-2-yloxy)-9-azabicyclo[3.3.1]nonane] | –
16 | > 2 | Cc1n[nH]c(C)c1S(=O)(=O)N1C2COCC1CC(Oc1cnccn1)C2 [Example 46, (1R,3s,5S)-9-[(3,5-Dimethyl-1H-pyrazol-4-yl)sulfonyl]-7-pyrazin-2-yloxy-3-oxa-9-azabicyclo[3.3.1]nonane] | –
17 | > 2 | Cc1n[nH]c(C)c1S(=O)(=O)N1C2COCC1CC(Oc1cnccn1)C2 [Example 47, (1R,3r,5S)-9-[(3,5-Dimethyl-1H-pyrazol-4-yl)sulfonyl]-7-pyrazin-2-yloxy-3-oxa-9-azabicyclo[3.3.1]nonane] | –
18 | > 2 | Cc1n[nH]c(C)c1S(=O)(=O)N1C[C@H]2COC[C@@H](C1)[C@H]2Oc1cnccn1 [Example 48, (1R,5S,9r)-7-((3,5-Dimethyl-1H-pyrazol-4-yl)sulfonyl)-9-(pyrazin-2-yloxy)-3-oxa-7-azabicyclo[3.3.1]nonane] | –
19 | > 2 | Cc1n[nH]c(C)c1S(=O)(=O)N1C[C@H]2COC[C@@H](C1)C2Oc1cnccn1 (stereo partly drawn) [Example 49, (1R,5S,9s)-7-((3,5-Dimethyl-1H-pyrazol-4-yl)sulfonyl)-9-(pyrazin-2-yloxy)-3-oxa-7-azabicyclo[3.3.1]nonane] | –
20 | > 2 | Cc1n[nH]c(C)c1S(=O)(=O)N1C[C@H]2CC[C@@H](C1)C2Oc1cnccn1 (stereo partly drawn) [Example 50, (1R,5S,8r)-3-((3,5-Dimethyl-1H-pyrazol-4-yl)sulfonyl)-8-(pyrazin-2-yloxy)-3-azabicyclo[3.2.1]octane] | –
21 | > 2 | Cc1n[nH]c(C)c1S(=O)(=O)N1C[C@H]2CCC[C@@H](C1)[C@H]2Oc1cnccn1 [Example 51, (1R,5S,9r)-3-((3,5-Dimethyl-1H-pyrazol-4-yl)sulfonyl)-9-(pyrazin-2-yloxy)-3-azabicyclo[3.3.1]nonane] | Inhibition of ROS production in neuro 2A cells, 5 μM (inhibition) ([1]; ROS induced with 0.2 mM H2O2): 0%; Inhibition of ROS production in neuro 2A cells, 10 μM (inhibition) ([1]; ROS induced with 0.2 mM H2O2): 21%
22 | < 1 | Cc1n[nH]c(C)c1S(=O)(=O)N1C[C@H]2CCC[C@@H](C1)[C@@H]2Oc1cnccn1 [Example 52, (1R,5S,9s)-3-((3,5-Dimethyl-1H-pyrazol-4-yl)sulfonyl)-9-(pyrazin-2-yloxy)-3-azabicyclo[3.3.1]nonane] | Inhibition of ROS production in neuro 2A cells, 5 μM (inhibition) ([1]; ROS induced with 0.2 mM H2O2): 9%; Inhibition of ROS production in neuro 2A cells, 10 μM (inhibition) ([1]; ROS induced with 0.2 mM H2O2): 27%
23 | > 2 | Cc1ccc(OC2CC3CCC(C2)N3S(=O)(=O)c2c(C)n[nH]c2C)nn1 [Example 53, (1R,3r,5S)-8-[(3,5-Dimethyl-1H-pyrazol-4-yl)sulfonyl]-3-(6-methylpyridazin-3-yl)oxy-8-azabicyclo[3.2.1]octane] | –
